# How the values were obtained:
# [1] = DRUGMATRIX: Glutamate, AMPA radioligand binding (ligand: [3H] AMPA); format: cell membranes, Rattus norvegicus, Wistar, Cerebral cortex, Membrane; details: Not Active = under 50% inhibition at 10 µM
# [2] = molecular target: T1, 3-hydroxy-3-methylglutaryl-coenzyme A reductase (Homo sapiens, UniProt P04035); design: species or system Escherichia coli;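 further: enzyme inhibition assay of HMG-CoA reductase using radiolabeled [14C]HMG-CoA as substrate; in other assays of this panel Not Active means under 50% inhibition at 10 µM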
# T1 sequence (P04035 whole entry): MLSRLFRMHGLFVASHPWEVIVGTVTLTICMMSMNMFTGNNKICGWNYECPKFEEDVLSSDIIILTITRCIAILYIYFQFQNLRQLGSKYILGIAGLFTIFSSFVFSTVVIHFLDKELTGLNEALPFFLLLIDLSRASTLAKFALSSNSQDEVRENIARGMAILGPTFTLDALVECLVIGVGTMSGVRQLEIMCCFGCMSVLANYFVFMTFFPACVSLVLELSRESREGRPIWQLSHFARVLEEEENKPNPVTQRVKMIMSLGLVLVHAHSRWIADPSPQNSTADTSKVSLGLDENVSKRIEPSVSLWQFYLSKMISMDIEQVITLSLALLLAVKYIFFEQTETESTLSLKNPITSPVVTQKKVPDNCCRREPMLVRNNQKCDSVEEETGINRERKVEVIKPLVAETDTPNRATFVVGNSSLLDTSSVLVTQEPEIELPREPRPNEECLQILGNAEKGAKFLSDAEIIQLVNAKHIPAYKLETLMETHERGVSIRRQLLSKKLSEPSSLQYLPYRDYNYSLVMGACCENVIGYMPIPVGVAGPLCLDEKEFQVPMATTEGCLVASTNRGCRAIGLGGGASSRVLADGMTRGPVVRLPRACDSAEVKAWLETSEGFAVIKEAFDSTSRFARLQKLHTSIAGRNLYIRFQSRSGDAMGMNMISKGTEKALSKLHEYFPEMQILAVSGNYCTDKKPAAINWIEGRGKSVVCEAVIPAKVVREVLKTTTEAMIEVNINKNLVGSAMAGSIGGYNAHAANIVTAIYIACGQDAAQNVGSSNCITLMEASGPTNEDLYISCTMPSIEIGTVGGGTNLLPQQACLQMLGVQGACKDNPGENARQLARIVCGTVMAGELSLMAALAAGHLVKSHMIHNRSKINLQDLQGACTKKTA
# [3] = DRUGMATRIX: Imidazoline I2, Central radioligand binding (ligand: [3H] Idazoxan); format: cell membranes, Rattus norvegicus, Wistar, Cerebral cortex, Membrane; details: Not Active = under 50% inhibition at 10 µM
# [4] = DRUGMATRIX: Interleukin IL-1 radioligand binding (ligand: [125I] interleukin 1beta); format: cell membranes, Membrane; details: nih3t3; Not Active = under 50% inhibition at 10 µM
# [5] = molecular target: T2, Amine oxidase [flavin-containing] A (Homo sapiens, UniProt P21397); experiment: DRUGMATRIX: Monoamine Oxidase MAO-A enzyme inhibition (substrate: Kynuramine); design: species or system BTI-TN-5B1-4; details: bti-tn-5b1-4; Not Active = under 50% inhibition at 10 µM
# T2 sequence (P21397 whole entry): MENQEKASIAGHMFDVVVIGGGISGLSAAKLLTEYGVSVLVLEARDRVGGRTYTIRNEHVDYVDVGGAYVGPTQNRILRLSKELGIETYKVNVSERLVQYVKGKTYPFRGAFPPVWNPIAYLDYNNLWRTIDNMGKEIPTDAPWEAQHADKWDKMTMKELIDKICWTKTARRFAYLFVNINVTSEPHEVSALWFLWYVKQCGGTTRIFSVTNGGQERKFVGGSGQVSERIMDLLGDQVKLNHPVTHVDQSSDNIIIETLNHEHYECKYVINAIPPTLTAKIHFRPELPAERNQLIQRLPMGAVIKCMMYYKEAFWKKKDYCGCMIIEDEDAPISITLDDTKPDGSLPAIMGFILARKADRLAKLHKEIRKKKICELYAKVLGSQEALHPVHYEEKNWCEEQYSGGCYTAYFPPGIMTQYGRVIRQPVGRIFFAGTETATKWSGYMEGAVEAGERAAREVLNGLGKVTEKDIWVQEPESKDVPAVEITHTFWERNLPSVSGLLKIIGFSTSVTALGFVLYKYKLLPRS
# Nitric oxide synthase 1 = Nitric oxide synthase 1 (Rattus norvegicus, UniProt P29476); format: tissue-based, Cerebellum; further: in other assays of this panel Not Active means under 50% inhibition at 10 µM
# Cytochrome P450 2C19 = Cytochrome P450 2C19 (Homo sapiens, UniProt P33261); details: bti-tn-5b1-4; further: in other assays of this panel Not Active means under 50% inhibition at 10 µM
# Cytochrome P450 2C19, sequence (P33261 whole entry): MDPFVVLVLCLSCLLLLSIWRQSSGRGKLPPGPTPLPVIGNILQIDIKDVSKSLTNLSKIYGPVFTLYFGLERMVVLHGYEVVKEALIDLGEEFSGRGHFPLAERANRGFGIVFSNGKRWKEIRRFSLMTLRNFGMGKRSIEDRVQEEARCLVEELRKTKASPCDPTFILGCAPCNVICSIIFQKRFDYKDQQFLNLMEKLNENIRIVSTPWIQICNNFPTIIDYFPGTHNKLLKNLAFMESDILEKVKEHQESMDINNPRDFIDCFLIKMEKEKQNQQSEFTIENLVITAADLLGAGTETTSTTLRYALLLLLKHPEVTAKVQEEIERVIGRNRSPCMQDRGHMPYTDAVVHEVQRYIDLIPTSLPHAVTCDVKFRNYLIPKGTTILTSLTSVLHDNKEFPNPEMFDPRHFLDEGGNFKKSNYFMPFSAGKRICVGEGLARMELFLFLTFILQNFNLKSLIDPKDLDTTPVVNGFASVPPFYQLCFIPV
# Nitric oxide synthase 1, sequence (P29476 whole entry): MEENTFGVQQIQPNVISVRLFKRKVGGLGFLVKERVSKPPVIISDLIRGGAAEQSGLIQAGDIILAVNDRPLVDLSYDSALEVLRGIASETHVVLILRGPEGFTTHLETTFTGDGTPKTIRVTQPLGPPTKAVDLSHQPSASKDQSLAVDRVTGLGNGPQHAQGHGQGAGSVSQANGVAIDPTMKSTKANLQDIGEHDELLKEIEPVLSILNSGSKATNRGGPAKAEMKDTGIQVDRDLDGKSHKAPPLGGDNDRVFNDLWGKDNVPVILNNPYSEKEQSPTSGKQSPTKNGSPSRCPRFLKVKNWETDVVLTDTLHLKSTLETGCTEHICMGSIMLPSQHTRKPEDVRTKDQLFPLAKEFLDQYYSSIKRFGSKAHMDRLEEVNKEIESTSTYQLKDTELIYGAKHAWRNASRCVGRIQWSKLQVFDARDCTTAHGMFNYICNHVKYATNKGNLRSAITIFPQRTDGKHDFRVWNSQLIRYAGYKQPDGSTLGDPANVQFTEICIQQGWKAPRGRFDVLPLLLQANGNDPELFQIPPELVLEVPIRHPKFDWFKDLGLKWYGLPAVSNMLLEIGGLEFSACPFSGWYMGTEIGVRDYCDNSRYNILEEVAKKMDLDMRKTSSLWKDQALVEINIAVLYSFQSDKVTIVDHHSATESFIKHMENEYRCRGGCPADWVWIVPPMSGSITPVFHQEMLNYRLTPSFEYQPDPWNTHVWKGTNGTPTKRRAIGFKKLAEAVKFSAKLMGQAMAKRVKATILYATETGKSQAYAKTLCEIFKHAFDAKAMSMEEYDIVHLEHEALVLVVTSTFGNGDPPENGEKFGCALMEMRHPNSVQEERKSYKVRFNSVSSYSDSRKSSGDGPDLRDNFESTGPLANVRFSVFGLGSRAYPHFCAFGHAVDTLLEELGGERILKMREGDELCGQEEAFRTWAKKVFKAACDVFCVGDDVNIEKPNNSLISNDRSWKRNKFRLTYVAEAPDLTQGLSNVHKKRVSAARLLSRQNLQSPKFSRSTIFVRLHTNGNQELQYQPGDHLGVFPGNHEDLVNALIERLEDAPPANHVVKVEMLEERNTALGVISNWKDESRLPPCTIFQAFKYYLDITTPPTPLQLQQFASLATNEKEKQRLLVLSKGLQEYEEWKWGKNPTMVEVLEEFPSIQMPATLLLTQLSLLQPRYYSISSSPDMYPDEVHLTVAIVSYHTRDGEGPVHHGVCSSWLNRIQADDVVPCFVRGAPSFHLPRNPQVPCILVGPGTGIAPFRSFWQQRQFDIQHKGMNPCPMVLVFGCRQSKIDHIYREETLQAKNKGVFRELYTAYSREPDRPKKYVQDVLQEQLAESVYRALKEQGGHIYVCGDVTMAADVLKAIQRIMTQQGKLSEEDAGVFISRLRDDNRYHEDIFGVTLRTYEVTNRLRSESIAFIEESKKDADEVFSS
Compound,IC50 [1],Ki [1],IC50 [2],IC50 [3],Ki [3],IC50 [4],Ki [4],IC50 [5],IC50 (Nitric oxide synthase 1),IC50 (Cytochrome P450 2C19),Ki (Cytochrome P450 2C19),Ki [2],Ki [5],Ki (Nitric oxide synthase 1),IC50 ([3]; read-out: IC50),Ki ([3]; read-out: Ki)
CCOC(=O)[C@H](CCc1ccccc1)N[C@@H](C)C(=O)N1CCC[C@H]1C(=O)O,Not Active,Not Active,Not Active,Not Active,Not Active,Not Active,Not Active,Not Active,Not Active,Not Active,Not Active,–,–,–,–,–
POLYVINYL ALCOHOL,Not Active,Not Active,Not Active,Not Active,Not Active,Not Active,Not Active,Not Active,Not Active,Not Active,Not Active,Not Active,Not Active,Not Active,–,–
CCC[C@@H]1C[C@@H](C(=O)N[C@@H]([C@H]2O[C@H](SC)[C@H](O)[C@@H](O)[C@H]2O)[C@H](C)Cl)N(C)C1 [CLINDAMYCIN],Not Active,Not Active,Not Active,Not Active,Not Active,Not Active,Not Active,Not Active,Not Active,–,–,–,–,–,–,–
CN(Cc1cnc2nc(N)nc(N)c2n1)c1ccc(C(=O)N[C@@H](CCC(=O)O)C(=O)O)cc1 [METHOTREXATE],Not Active,Not Active,Not Active,Not Active,Not Active,Not Active,Not Active,Not Active,Not Active,Not Active,Not Active,–,–,–,–,–
C[C@@H]1CC[C@H]2[C@@H](C)C(=O)O[C@@H]3O[C@@]4(C)CC[C@@H]1[C@]32OO4 [ARTEMISININ],Not Active,Not Active,Not Active,Not Active,Not Active,Not Active,Not Active,Not Active,Not Active,–,–,–,–,–,–,–
COc1ccc2cc(CCC(C)=O)ccc2c1 [NABUMETONE],Not Active,Not Active,Not Active,Not Active,Not Active,Not Active,Not Active,–,Not Active,Not Active,Not Active,–,–,–,–,–
COc1ccc(Cc2nccc3cc(OC)c(OC)cc23)cc1OC [PAPAVERINE],Not Active,Not Active,Not Active,Not Active,Not Active,Not Active,Not Active,Not Active,Not Active,–,–,–,–,–,–,–
CNC(=C[N+](=O)[O-])NCCSCc1csc(CN(C)C)n1 [NIZATIDINE],Not Active,Not Active,Not Active,Not Active,Not Active,Not Active,Not Active,Not Active,Not Active,–,–,–,–,–,–,–
COc1ccccc1OCC(O)CO (stereo unspecified) [GUAIFENESIN],Not Active,Not Active,Not Active,Not Active,Not Active,Not Active,Not Active,Not Active,Not Active,–,–,–,–,–,–,–
O=C(c1ccccc1Cl)N1CCC(Cc2ccccc2)CC1,Not Active,Not Active,Not Active,Not Active,Not Active,Not Active,Not Active,Not Active,Not Active,–,–,–,–,–,–,–
CC(C)(Sc1cc(C(C)(C)C)c(O)c(C(C)(C)C)c1)Sc1cc(C(C)(C)C)c(O)c(C(C)(C)C)c1 [PROBUCOL],Not Active,Not Active,Not Active,Not Active,Not Active,Not Active,Not Active,Not Active,Not Active,–,–,–,–,–,–,–
C/C=C\c1ccc(O)c(OC)c1 [ISOEUGENOL],Not Active,Not Active,Not Active,Not Active,Not Active,Not Active,Not Active,Not Active,Not Active,–,–,–,–,–,–,–
CCOC(=O)C1=C(C)NC(C)=C(C(=O)OC)C1c1cccc(Cl)c1Cl (stereo unspecified) [FELODIPINE],Not Active,Not Active,Not Active,Not Active,Not Active,Not Active,Not Active,Not Active,Not Active,–,–,–,–,–,–,–
Cc1cn[nH]c1 [FOMEPIZOLE],Not Active,Not Active,Not Active,Not Active,Not Active,Not Active,Not Active,Not Active,Not Active,–,–,–,–,–,–,–
CN1C(=O)CN=C(c2ccccc2)c2cc(Cl)ccc21 [DIAZEPAM],Not Active,Not Active,Not Active,Not Active,Not Active,Not Active,Not Active,Not Active,Not Active,–,–,–,–,–,–,–
N[C@@H](Cc1ccc(F)cc1)C(=O)O,Not Active,Not Active,Not Active,Not Active,Not Active,Not Active,Not Active,Not Active,Not Active,–,–,–,–,–,–,–
O=C(O)Cc1ccc(-c2ccccc2)cc1 [FELBINAC],Not Active,Not Active,Not Active,Not Active,Not Active,Not Active,Not Active,Not Active,Not Active,–,–,–,–,–,–,–
Cc1cnc(C(=O)NCCc2ccc(S(=O)(=O)NC(=O)NC3CCCCC3)cc2)cn1 [GLIPIZIDE],Not Active,Not Active,–,Not Active,Not Active,Not Active,Not Active,Not Active,Not Active,–,–,–,–,–,–,–
CC[C@]1(O)CC[C@H]2[C@@H]3CCC4=CCCC[C@@H]4[C@H]3CC[C@@]21C,Not Active,Not Active,Not Active,Not Active,Not Active,Not Active,Not Active,Not Active,Not Active,–,–,–,–,–,–,–
OCCN1CCN(CCCN2c3ccccc3Sc3ccc(Cl)cc32)CC1 [PERPHENAZINE],Not Active,Not Active,Not Active,Not Active,Not Active,Not Active,Not Active,Not Active,Not Active,–,–,–,–,–,–,–
CN1C[C@H](C(=O)N[C@]2(C)O[C@@]3(O)[C@@H]4CCCN4C(=O)[C@H](Cc4ccccc4)N3C2=O)C[C@@H]2c3cccc4[nH]cc(c34)C[C@H]21 [DIHYDROERGOTAMINE],Not Active,Not Active,Not Active,–,–,Not Active,Not Active,Not Active,Not Active,–,–,–,–,–,2.5 nM,1.67 nM
CC[C@H](C)C(=O)O[C@H]1C[C@@H](C)C=C2C=C[C@H](C)[C@H](CC[C@@H]3C[C@@H](O)CC(=O)O3)[C@H]21 [LOVASTATIN],Not Active,Not Active,–,Not Active,Not Active,Not Active,Not Active,Not Active,Not Active,–,–,–,–,–,–,–
CC[C@H](C)C(=O)O[C@H]1C[C@H](O)C=C2C=C[C@H](C)[C@H](CC[C@@H](O)C[C@@H](O)CC(=O)O)[C@H]21 [PRAVASTATIN],Not Active,Not Active,–,Not Active,Not Active,Not Active,Not Active,Not Active,Not Active,Not Active,Not Active,–,–,–,–,–

# — ChEMBL document CHEMBL1909046, “DrugMatrix in vitro pharmacology data”
